# In patent US20250041190A1, “Composition and application, in particular cosmetic” (MICROPHYT, priority 2021, published 2025):
# Experiments:
# neuropeptide CGRP [1] = experiment: CGRP ELISA assay in co-culture of keratinocytes and sensory neurons, oxidative stress with AITC; type: cell-based, human; settings: positive control: AITC 1 mM alone, 30 min stress; unstressed control (DMSO 0.2%) = 100; n=6
# Protocol: (§1) Sensory neurons were obtained from hiPS cells (human induced pluripotent stem cells), which were themselves obtained from human fibroblasts. The cells were seeded and maintained for 6 days in a differentiation-inducing medium at 37° C. (5% CO2). The culture medium was changed every 2 days. After 9 days in culture, the culture medium was replaced with a maturation medium. Cells were maintained in culture at a temperature of 37° C. under 5% CO2. The culture medium was changed every 2-3 days. After 14 days in culture, commercial keratinocytes from an adult donor (Lonza) were added to the differentiated hiPS cell culture. The co-culture was maintained in a culture medium consisting of a mixture of maturation medium and keratinocyte growth medium (Promocell) at a temperature of 37° C. under 5% CO2. The culture medium was changed every 2-3 days.
# (§2) After a 17-day co-culture period, the composition was added to the medium at a final concentration by weight relative to the total weight of the medium and composition of 0.01% or 0.05% (w/w). […]
# CGRP assay: After a 30-minute stress period, the culture supernatants were recovered and a CGRP assay by ELISA was performed. The results are expressed as the mean of 6 samples (n=6). […]
# [2] = test system: MOR receptor (μ-opioid receptor); experiment: MOR receptor immunolabeling in co-culture of human keratinocytes and sensory neurons stressed with AITC; type: cell-based; settings: positive control: AITC 1 mM alone; composition-free control (DMSO 0.2%) = 100; n=6
# Protocol: as §1, §2
# (§3) Photographs were taken with an automated microscope (InCell 2200; GE Healthcare) at ×20 magnification. MOR marker expression density was measured and compared with the control condition, corresponding to the mean of 6 samples (n=6). […]
# neuropeptide CGRP [3] = experiment: CGRP ELISA assay in co-culture of keratinocytes and sensory neurons, oxidative stress with capsaicin; type: cell-based, human; settings: positive control: capsaicin 10 μM alone, 30 min stress; unstressed control (DMSO 0.2%) = 100; n=6
# Protocol: Sensory neurons were obtained from hiPS cells (human induced pluripotent stem cells), which were themselves obtained from human fibroblasts. The cells were seeded and maintained for 6 days in a differentiation-inducing medium at 37° C. (5% CO2). The culture medium was changed every 2 days. After 9 days in culture, the culture medium was replaced with a maturation medium. Cells were maintained in culture at a temperature of 37° C. under 5% CO2. The culture medium was changed every 2-3 days. After 14 days in culture, commercial keratinocytes from an adult donor (Lonza) were added to the differentiated hiPS cell culture. The co-culture was maintained in a culture medium consisting of a mixture of maturation medium and keratinocyte growth medium (Promocell) at a temperature of 37° C. under 5% CO2. The culture medium was changed every 2-3 days. After a 17-day co-culture period, the composition was added to the medium at a final concentration by weight relative to the total weight of the medium and composition of 0.01% or 0.05% (w/w). After a 24-hour incubation period, capsaicin (10 µM) or AITC (1 mM) or DMSO (0.2% w/w) as a control, was added to the co-culture in the presence of the composition according to the invention. […] The results are expressed as the mean of 6 samples (n=6).
# [4] = test system: co-culture of sensory neurons and keratinocytes; experiment: Length of neuronal extensions in co-culture of sensory neurons and keratinocytes stressed with capsaicin; type: cell-based, human; settings: positive control: capsaicin 10 μM alone; composition-free control (DMSO 0.2%) = 100; n=6
# Protocol: as §1
# After a 17-day co-culture period, the composition was added to the medium at a final concentration by weight relative to the total weight of the medium and composition of 0.01% or 0.05% (w/w).
# After a 24-hour incubation period, capsaicin (10 µM) or AITC (1 mM) or DMSO (0.2% w/w) as a control, was added to the co-culture in the presence of the composition according to the invention. […]
# A neuron count was performed and the length of the neuronal extensions was measured for each condition. […]
# [5] = test system: MOR receptor (μ-opioid receptor); experiment: MOR receptor immunolabeling in co-culture of human keratinocytes and sensory neurons stressed with capsaicin; type: cell-based; settings: positive control: capsaicin 10 μM alone; composition-free control (DMSO 0.2%) = 100; n=6
# Protocol: as §1, §2, §3
SMILES,Protein amount of CGRP (%) (neuropeptide CGRP [1]),Level of MOR receptor protein expression (%) [2] [%],Protein amount of CGRP (%) (neuropeptide CGRP [3]),Length of neuronal extensions/nbr of neurons (%) [4] [%],Level of MOR receptor protein expression (%) [5] [%]
"C=CCN=C=S [AITC, allyl isothiocyanate]",132,78,,,
COc1cc(CNC(=O)CCCC/C=C/C(C)C)ccc1O [capsaicin],,,135,76,82
